Some results are limits rather than exact numbers.

In test [1] the target is T1, human SGLT-1 (Homo sapiens, UniProt P13866).
T1 construct: Full-length human SGLT-1 cDNA in the pCMV-XL-Neo expression vector was obtained from Origene Corporation; host or cells: CHO-K1 cells (American Type Culture Collection), stably transfected, G418-selected
T1 sequence (P13866 1-664): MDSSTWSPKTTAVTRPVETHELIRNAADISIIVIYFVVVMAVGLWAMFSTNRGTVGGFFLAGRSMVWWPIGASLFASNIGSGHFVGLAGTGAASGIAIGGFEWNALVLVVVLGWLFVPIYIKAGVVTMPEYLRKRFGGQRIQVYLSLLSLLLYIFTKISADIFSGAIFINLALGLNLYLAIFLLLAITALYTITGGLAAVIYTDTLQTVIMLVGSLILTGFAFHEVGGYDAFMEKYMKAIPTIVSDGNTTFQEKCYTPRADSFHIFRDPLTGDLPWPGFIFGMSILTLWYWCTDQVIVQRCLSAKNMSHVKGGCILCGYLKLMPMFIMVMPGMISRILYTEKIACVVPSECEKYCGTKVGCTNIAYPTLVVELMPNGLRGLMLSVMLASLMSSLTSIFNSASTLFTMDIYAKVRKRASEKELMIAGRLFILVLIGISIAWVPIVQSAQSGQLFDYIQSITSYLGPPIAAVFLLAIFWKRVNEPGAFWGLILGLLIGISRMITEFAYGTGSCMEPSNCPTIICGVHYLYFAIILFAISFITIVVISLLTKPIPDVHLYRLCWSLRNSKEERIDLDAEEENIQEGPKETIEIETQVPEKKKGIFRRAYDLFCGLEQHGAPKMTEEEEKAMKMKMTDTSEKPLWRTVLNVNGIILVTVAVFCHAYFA
Kind of test: Methyl-α-D-[U-14C]glucopyranoside uptake assay for SGLT-1 in CHO-K1 cells. The settings on record: CHO-K1 cells expressing hSGLT-1; for inhibition at 1 µM / inhibition at 10 µM / inhibition at 0.1 µM: read-out: % inhibition of Methyl-α-D-[U-^14C] Glucopyranoside uptake (CHO-K1 cells) mediated by SGLT-1. Format: cell-based. The method, then: Preparation of Human SGLT-1 Expressing Cells
Full-length human SGLT-1 cDNA in the pCMV-XL-Neo expression vector was obtained from Origene Corporation and propagated in Escherichia coli strain DH5α using Luria-Bertani (LB) medium containing ampicillin. […] Stably transfected cells were selected using G418 antibiotic selection pressure.
Methyl-α-D-[U-^14C]Glucopyranoside Uptake Assay for SGLT-1
(§1) Cells expressing hSGLT-1 were seeded on 96-well tissue culture plates (Greiner, Inc.) in RPMI containing 10% FBS and 800 μg/ml G418 (0.8×10^5 cells per well in 200 μL medium) and incubated at 37° C. under 5% carbon dioxide for 24 h prior to the assay. Cells were washed twice with 200 μL of either sodium buffer (140 mM NaCl, 4.7 mM KCl, 2.2 mM CaCl2, 1.2 mM MgCl2, 10 mM Tris/Hepes, pH 7.4) or sodium-free buffer (137 mM N-methyl-glucamine, 4.7 mM KCl, 2.2 mM CaCl2, 1.2 mM MgCl2, 10 mM Tris/Hepes, pH 7.4). Reaction mixture containing test compounds diluted in assay buffer, 1 mM unlabeled Methyl-α-D-glucopyranoside and 1 μCi/well methyl-α-D-[U-^14C]glucopyranoside (American Radiochemicals) was added per well of a 96-well plate and incubated at 37° C. for 1 h. Cells were washed thrice with 200 μL of wash buffer (140 mM NaCl, 4.7 mM KCl, 2.2 mM CaCl2, 1.2 mM MgCl2, 10 mM Tris/Hepes, pH 7.4 containing 500 μM phlorizin) and lysed using 50 μL of 0.25N NaOH. Methyl-α-D[U-^14C]glucopyranoside uptake was quantitated using a Top count scintillation counter (PerkinElmer, Inc.). All the test compounds were assayed in triplicates.

Test [2] deals with T2, mouse SGLT-2 (Mus musculus, UniProt Q923I7).
T2 construct: Full-length mouse SGLT-2 cDNA was amplified from C57BL/6J mouse kidneys and introduced in the pcDNA3.1(+) expression vector; expressed in transfected cells; host or cells: CHO-K1 cells (American Type Culture Collection), stably transfected, G418-selected
T2 sequence (Q923I7 1-670): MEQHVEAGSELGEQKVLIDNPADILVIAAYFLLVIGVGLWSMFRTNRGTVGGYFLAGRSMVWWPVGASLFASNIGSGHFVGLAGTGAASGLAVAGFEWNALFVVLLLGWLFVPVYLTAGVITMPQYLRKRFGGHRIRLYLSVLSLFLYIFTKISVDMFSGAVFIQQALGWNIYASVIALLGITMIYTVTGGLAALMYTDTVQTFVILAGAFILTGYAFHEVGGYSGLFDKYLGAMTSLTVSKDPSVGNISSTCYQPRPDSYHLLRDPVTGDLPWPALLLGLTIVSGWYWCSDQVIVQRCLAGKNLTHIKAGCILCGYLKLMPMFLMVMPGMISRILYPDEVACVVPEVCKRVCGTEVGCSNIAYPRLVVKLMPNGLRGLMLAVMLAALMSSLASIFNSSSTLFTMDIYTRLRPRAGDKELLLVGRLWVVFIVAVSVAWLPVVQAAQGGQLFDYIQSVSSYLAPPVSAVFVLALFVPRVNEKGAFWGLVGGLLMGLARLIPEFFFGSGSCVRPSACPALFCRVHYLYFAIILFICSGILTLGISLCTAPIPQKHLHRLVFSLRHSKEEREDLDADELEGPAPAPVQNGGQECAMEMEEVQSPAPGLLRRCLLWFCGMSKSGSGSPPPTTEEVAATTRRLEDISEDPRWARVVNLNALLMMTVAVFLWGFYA
The test is described as follows: Methyl-α-D-[U-14C]glucopyranoside uptake assay for SGLT-2 in CHO-K1 cells. Format: cell-based. The settings on record: CHO-K1 cells expressing mSGLT-2, read-out: % inhibition of Methyl-α-D-[U-^14C] Glucopyranoside uptake (CHO-K1 cells) mediated by SGLT-2; for inhibition at 0.001 µM: 1 nM; for inhibition at 0.01 µM: 10 nM; for inhibition at 0.1 µM: 100 nM. As to the method:
Preparation of Mouse SGLT-2 Expressing Cells
Full-length mouse SGLT-2 cDNA was amplified from C57BL/6J mouse kidneys and introduced in the pcDNA3.1(+) expression vector (Invitrogen, Inc.) and propagated in Escherichia coli strain DH5α using LuriaBertani (LB) medium containing ampicillin. […] Stably transfected cells were selected using G418 antibiotic selection pressure.
Methyl-α-D-[U-^14C]Glucopyranoside Uptake Assay for SGLT-2
as §1, with “Cells expressing mSGLT-2 were seeded” for “Cells expressing hSGLT-1 were seeded”, “FBS and 400 μg/mL G418 (0.8×10^5” for “FBS and 800 μg/ml G418 (0.8×10^5”, “test compounds at different concentrations diluted in” for “test compounds diluted in”, “assay buffer, 0.1 mM unlabeled” for “assay buffer, 1 mM unlabeled”, “0.25N NaOH. Methyl-α-D-[U-^14C]glucopyranoside uptake was” for “0.25N NaOH. Methyl-α-D[U-^14C]glucopyranoside uptake was”

In test [3] the test system is C57BL/6J mice. The test is described as follows: Estimation of urinary glucose in C57BL/6J mice. Format: in vivo, mouse. The note with it: urine collected over 24 h. The method, then:
Estimation of Urinary Glucose in C57BL/6J Mice
C57BL/6J mice were fasted 4 h before drug treatment. Fasted mice were weighed and randomized into different groups based on their body weight (n=6). At time T0 test compounds and standard compounds suspended in 0.25% CMC or PEG 400 formulation, were administered to respective groups and kept in metabolic cages (6 mice/cage) after dosing. Animals were fed after drug administration and urine was collected over a period of 24 h. Urinary volume was measured and urinary glucose was estimated using Merckotest Glucose Reagent (Merck Specialties Pvt. Ltd., India).

Take `CON=CCCOc1ccc(Cc2cc(C3O[C@H](OC)[C@@H](O)[C@H](O)[C@H]3O)ccc2Cl)cc1` (stereo partly shown) [Compound 29]: the “% inhibition of Methyl-α-D-[U-^14C] Glucopyranoside uptake (CHO-K1 cells) mediated by SGLT-1” value in test [1] (100 nM) is listed as “N.E”. Moreover, in test [1], the inhibition at 1 µM is 70% and the inhibition at 10 µM was 92.9%. Further, in test [2], the inhibition at 0.001 µM was found to be 40.2%, the inhibition at 0.01 µM stood at 37.9% and the inhibition at 0.1 µM was found to be 77.2%.

Consider `CON=C(C)COc1ccc(Cc2cc(C3O[C@H](OC)[C@@H](O)[C@H](O)[C@H]3O)ccc2Cl)cc1` (stereo partly shown) [Compound 30], for which, in test [1] (100 nM), the inhibition at 0.1 µM is 24%. Also, in test [1], the inhibition at 1 µM was found to be 26.4% and the inhibition at 10 µM was 77.9%. In addition, in test [2], the inhibition at 0.001 µM was 35.6%, the inhibition at 0.01 µM worked out at 37.3% and the inhibition at 0.1 µM was 54%.

In the case of `CCON=CCOc1ccc(Cc2cc([C@]34OC[C@](CO)(O3)[C@@H](O)[C@H](O)[C@H]4O)ccc2Cl)cc1` [Compound 11], in test [1] (100 nM), the inhibition at 0.1 µM turned out to be 25.7%. Further, in test [1], the inhibition at 1 µM is 53.7% and the inhibition at 10 µM is 68.2%. For the same compound, in test [2], the inhibition at 0.001 µM was below 0%, the inhibition at 0.01 µM amounted to 20.1% and the inhibition at 0.1 µM came out at 50.8%. Moreover, the “UGE in mice (in mg/g of feed consumed) at 3 mpk” value in test [3] is given as 56.1 mg/g of feed consumed.

The record behind these values is patent US9018249B2, “SGLT inhibitors” (Panacea Biotec Limited, priority 2011, dated 2015).
